Measurements as given in patent US20110256064A1, “Novel Compounds for the Treatment of Diseases Associated with Amyloid or Amyloid-like Proteins” (AC Immune, S.A., priority 2010, published 2011).

Target: T1, A®1-42 peptide (Homo sapiens, UniProt P05067)
T1 construct: A®1-42 lyophilized powder (Bachem) was reconstituted in hexafluoroisopropanol (HFIP) to 1 mM; purchased Bachem
Test: Thioflavin T spectrofluorescence assay (ThT-assay), inhibition of A®1-42 aggregation
Assay type: biochemical
Settings: 330 µM small molecule, 33 µM A®1-42 (molar ratio 10:1), 10 µM ThT, 12.8% DMSO in PBS, 24 hrs at 37° C.; mean +/- SD of two independent experiments
Description: The capacity of the compounds of the invention to inhibit the aggregation of A®1-42 peptide was determined by using the thioflavin T spectrofluorescence assay (ThT-assay) as described below.
A®1-42 lyophilized powder (Bachem) was reconstituted in hexafluoroisopropanol (HFIP) to 1 mM. The peptide solution was sonicated for 15 min at room temperature, agitated overnight, and aliquots were placed into non-siliconized microcentrifuge tubes. The HFIP was then evaporated under a stream of argon. The resulting peptide film was dried under vacuum for 10 min, tightly sealed and stored at −80° C. until used.
An A®1-42 peptide film was dissolved in DMSO to reach 400 ? M. An assay solution in PBS was prepared in non-siliconized incubation tubes to reach the following concentrations: 330 ? M small molecule, 33 ? M A®1-42, 10 ? M thioflavin T (ThT), and 12.8% DMSO. Therefore, the final molar ratio of small molecule to A®1-42 was 10:1. A positive control without a small molecule was prepared to measure maximum RFU. A negative control without A®1-42 was prepared for each small molecule. The 3-amino-pyrazole trimer (Rzepecki et. al. Synthesis 2003, 1815) was tested as a reference compound in all assays to ascertain reproducibility between independent experiments. The solutions were then incubated for 24 hrs at 37° C., and the spectrofluorescence (relative fluorescence units; RFU) read in six replicates in black 384-well assay plates (Perkin-Elmer) on a Perkin-Elmer FluoroCount spectrofluorometer. Inhibition of aggregation is expressed as mean % inhibition±1 standard deviation (SD) according to the following equation: […]

T1 sequence (P05067 672-713): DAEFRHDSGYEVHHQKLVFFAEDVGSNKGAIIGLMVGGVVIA

FC(F)(F)c1ccc(Nc2cncc(NCC3CCNCC3)c2)cn1 [Example 1]
inhibition at 330 µM: 38 ± 0.6%

c1ncc(N2CCOCC2)cc1N1CCOCC1 [Example 2]
inhibition at 330 µM: 15.7 ± 6.1%

FC(F)(F)c1ccc(Nc2cncc(N3CCOCC3)c2)cn1 [Example 3]
inhibition at 330 µM: 36.9 ± 17.2%

c1cc2c(C3CCNCC3)c[nH]c2cc1Nc1cncc(N2CCOCC2)c1 [Example 4]
inhibition at 330 µM: 53.3 ± 7.6%

c1ncc(N2CCNCC2)cc1N1CCNCC1 [Example 5]
inhibition at 330 µM: 60.1 ± 7.8%

Fc1cc(F)cc(Nc2cncc(N3CCNCC3)c2)c1 [Example 6]
inhibition at 330 µM: 62.5 ± 7.4%

FC(F)(F)c1ccc(Nc2cncc(N3CCNCC3)c2)cn1 [Example 7]
inhibition at 330 µM: 28.3 ± 3.2%

c1ncc(NCC2CCNCC2)cc1NCC1CCNCC1 [Example 8]
inhibition at 330 µM: 69.5 ± 1.4%

Fc1cc(F)cc(Nc2cncc(NCC3CCNCC3)c2)c1 [Example 9]
inhibition at 330 µM: 55 ± 7.4%

FC(F)(F)c1ccc(Nc2cncc(NCC3CCNCC3)c2)cc1 [Example 10]
inhibition at 330 µM: 73.9 ± 4.7%

c1cc2ccc(Nc3cncc(NCC4CCNCC4)c3)nc2[nH]1 [Example 11]
inhibition at 330 µM: 62.7 ± 2.1%

c1ncc(Nc2ccc3c(C4CCNCC4)c[nH]c3c2)cc1NCC1CCNCC1 [Example 12]
inhibition at 330 µM: 95.4 ± 0.8%

c1ncc(Nc2ccc3c4c([nH]c3n2)CCCC4)cc1NCC1CCNCC1 [Example 13]
inhibition at 330 µM: 100 ± 4.4%

FC1(CNc2cncc(Nc3ccc(C(F)(F)F)nc3)c2)CCNCC1 [Example 14]
inhibition at 330 µM: 86.2 ± 4.7%

FC1(CNc2cncc(Nc3ccc4c5c([nH]c4n3)CCCC5)c2)CCNCC1 [Example 15]
inhibition at 330 µM: 95.7 ± 0.4%

FC1(CNc2cncc(Nc3ccc(C(F)(F)F)cc3)c2)CCNCC1 [Example 16]
inhibition at 330 µM: 62.9 ± 8.2%

Cn1c2c(c3ccc(Nc4cncc(NCC5(F)CCNCC5)c4)nc31)CCCC2 [Example 17]
inhibition at 330 µM: 96.5 ± 1.4%

CN1CCC(CNc2cncc(Nc3ccc(C(F)(F)F)nc3)c2)CC1 [Example 18]
inhibition at 330 µM: 29.5 ± 0.1%

FC(F)(F)c1ccc(Nc2cncc(NCC3CCOCC3)c2)cn1 [Example 19]
inhibition at 330 µM: 40.2 ± 6.3%

FC(F)(F)c1ccc(Nc2cncc(NCC3CCOCC3)c2)cc1 [Example 20]
inhibition at 330 µM: 51.7 ± 0.3%
